# Literature values, collected in patent publication EP2566463B1, “EXTENDED RELEASE THIOCO[…]” (Ali Raif Ilac Sanayi Ve Ticaret A.S., priority 2010, dated 2011).
# How the values were obtained:
# [1] = conventional, immediate release forms of thiocolchicoside
# [2] = conventional, immediate release forms
Compound,Elimination half life in plasma [1] [h],muscle relaxing effect starts [2] [h]
COc1c(O)cc2c(c1OC)-c1ccc(SC)c(=O)cc1C(NC(C)=O)CC2 (stereo not drawn) [3-Desmethylthiocolchicine],4 to 5,–
"N-[3-(β-D-glucopyranosyloxy)-1,2-dimethoxy-10-(methylthio)-9-oxo-5,6,7,9-tetrahydrobenzo[a]heptalen-7-yl]acetamide [thiocolchicoside]",4 to 5,1 to 2
